ChEMBL document CHEMBL1201862, “PubChem BioAssay data set” (2004)
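Each compound was tested at five concentrations against cells in 96-well plates for 48 hours. Here, GI50 denotes the concentration required for 50% inhibition of growth.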 Calls of active or inactive are those of the source. No stated cut-off is given here; in the data, active = GI50 up to about 1.1 µM and inactive = higher.

What was measured:
Assay in all cases: DTP human tumour cell line panel, 48 h
[1] = tested on: HOP-62
[2] = tested on: HT-29
[3] = tested on: IGROV-1
[4] = tested on: KM12
[5] = tested on: NCI-H23
[6] = tested on: OVCAR-4
[7] = tested on: OVCAR-5
[8] = tested on: OVCAR-8
[9] = tested on: RXF 393
[10] = tested on: SF-268
[11] = tested on: SK-MEL-28
[12] = tested on: SK-MEL-2
[13] = tested on: SNB-19
[14] = tested on: SW-620
[15] = tested on: HCC 2998
[16] = tested on: HCT-15
[17] = tested on: OVCAR-3
[18] = tested on: SNB-75

Cn1c(=O)c2c(nc3n2CCC(=O)N3)n(C)c1=O
GI50 [1]: > 100 µM (inactive)
GI50 [2]: > 100 µM (inactive)
GI50 [3]: > 100 µM (inactive)
GI50 [4]: > 100 µM (inactive)
GI50 [5]: > 100 µM (inactive)
GI50 [6]: > 100 µM (inactive)
GI50 [7]: > 100 µM (inactive)
GI50 [8]: > 100 µM (inactive)
GI50 [9]: > 100 µM (inactive)
GI50 [10]: > 100 µM (inactive)
GI50 [11]: > 100 µM (inactive)
GI50 [12]: > 100 µM (inactive)
GI50 [13]: > 100 µM (inactive)
GI50 [14]: > 100 µM (inactive)

O=C1C=CC2(CCCCCCC2=O)CC1 (stereo not drawn)
GI50 [15]: > 100 µM (inactive)
GI50 [16]: > 100 µM
GI50 [1]: > 100 µM (inactive)
GI50 [2]: > 100 µM (inactive)
GI50 [3]: > 100 µM (inactive)
GI50 [4]: > 100 µM (inactive)
GI50 [17]: > 100 µM (inactive)
GI50 [6]: > 100 µM (inactive)
GI50 [7]: > 100 µM (inactive)
GI50 [8]: > 100 µM (inactive)
GI50 [9]: > 100 µM (inactive)
GI50 [10]: > 100 µM (inactive)
GI50 [11]: > 100 µM (inactive)
GI50 [13]: > 100 µM (inactive)
GI50 [18]: 57.9 µM (inactive)
GI50 [14]: > 100 µM (inactive)

CCOC(=O)C(CCC(N)=O)(CCC(=O)OC)C(=O)OCC
GI50 [15]: > 100 µM (inactive)
GI50 [1]: > 100 µM (inactive)
GI50 [2]: > 100 µM (inactive)
GI50 [3]: > 100 µM (inactive)
GI50 [4]: > 100 µM (inactive)
GI50 [5]: > 100 µM (inactive)
GI50 [17]: > 100 µM (inactive)
GI50 [6]: > 100 µM (inactive)
GI50 [7]: > 100 µM (inactive)
GI50 [8]: > 100 µM (inactive)
GI50 [9]: > 100 µM (inactive)
GI50 [10]: > 100 µM (inactive)
GI50 [11]: > 100 µM (inactive)
GI50 [13]: > 100 µM (inactive)
GI50 [18]: > 100 µM (inactive)
GI50 [14]: > 100 µM (inactive)

O=C1C2CC=CCC2C(=O)C12CCc1ccccc12 (stereo not drawn)
GI50 [15]: > 100 µM (inactive)
GI50 [16]: > 100 µM
GI50 [1]: > 100 µM (inactive)
GI50 [2]: > 100 µM (inactive)
GI50 [3]: > 100 µM (inactive)
GI50 [5]: > 100 µM (inactive)
GI50 [17]: > 100 µM (inactive)
GI50 [6]: > 100 µM (inactive)
GI50 [8]: > 100 µM (inactive)
GI50 [9]: > 100 µM (inactive)
GI50 [10]: > 100 µM (inactive)
GI50 [11]: > 100 µM (inactive)
GI50 [18]: > 100 µM (inactive)
GI50 [14]: > 100 µM (inactive)

CCCCCCCCC(=O)NCCCNCCCNC(=O)CCCCCCCC
GI50 [15]: 2.84 µM (inactive)
GI50 [16]: 14.7 µM
GI50 [1]: 13.8 µM (inactive)
GI50 [2]: 2.92 µM (inactive)
GI50 [3]: 4.35 µM (inactive)
GI50 [4]: 2.01 µM (inactive)
GI50 [5]: 15.7 µM (inactive)
GI50 [17]: 15.5 µM (inactive)
GI50 [6]: 14.7 µM (inactive)
GI50 [7]: 15.2 µM (inactive)
GI50 [8]: 14.9 µM (inactive)
GI50 [9]: 8.89 µM (inactive)
GI50 [10]: 10.2 µM (inactive)
GI50 [11]: 12.3 µM (inactive)
GI50 [12]: 3.25 µM (inactive)
GI50 [13]: 19.1 µM (inactive)
GI50 [14]: 2.54 µM (inactive)

O=C(Cc1nc2ccccc2s1)NC12CC3CC(CC(C3)C1)C2
GI50 [15]: > 100 µM (inactive)
GI50 [16]: > 100 µM
GI50 [1]: > 100 µM (inactive)
GI50 [2]: > 100 µM (inactive)
GI50 [4]: > 100 µM (inactive)
GI50 [5]: > 100 µM (inactive)
GI50 [6]: > 100 µM (inactive)
GI50 [8]: > 100 µM (inactive)
GI50 [10]: > 100 µM (inactive)
GI50 [11]: > 100 µM (inactive)
GI50 [12]: > 100 µM (inactive)
GI50 [13]: > 100 µM (inactive)
GI50 [18]: > 100 µM (inactive)
GI50 [14]: > 100 µM (inactive)

Cc1nc2nnnn2c2c1C(=O)Nc1ccccc1N2
GI50 [15]: > 100 µM (inactive)
GI50 [1]: 71.9 µM (inactive)
GI50 [2]: > 100 µM (inactive)
GI50 [3]: > 100 µM (inactive)
GI50 [4]: > 100 µM (inactive)
GI50 [5]: > 100 µM (inactive)
GI50 [17]: > 100 µM (inactive)
GI50 [8]: > 100 µM (inactive)
GI50 [9]: > 100 µM (inactive)
GI50 [10]: > 100 µM (inactive)
GI50 [11]: > 100 µM (inactive)
GI50 [12]: > 100 µM (inactive)
GI50 [13]: > 100 µM (inactive)
GI50 [18]: > 100 µM (inactive)
GI50 [14]: > 100 µM (inactive)

CCOC(=O)NC(=O)c1cn(CCN2CCN(C(=O)CNC(=O)CNC(=O)Cn3cc(C(=O)NC(=O)OCC)c(=O)[nH]c3=O)CC2)c(=O)[nH]c1=O
GI50 [15]: > 100 µM (inactive)
GI50 [16]: > 100 µM
GI50 [1]: > 100 µM (inactive)
GI50 [2]: > 100 µM (inactive)
GI50 [4]: > 100 µM (inactive)
GI50 [5]: > 100 µM (inactive)
GI50 [17]: > 100 µM (inactive)
GI50 [7]: > 100 µM (inactive)
GI50 [8]: > 100 µM (inactive)
GI50 [10]: > 100 µM (inactive)
GI50 [11]: > 100 µM (inactive)
GI50 [12]: > 100 µM (inactive)
GI50 [13]: > 100 µM (inactive)
GI50 [18]: > 100 µM (inactive)
GI50 [14]: > 100 µM (inactive)

NC1(CCCCCCCCCCC(=O)O)CNCCNCCNCCNC1
GI50 [15]: 15.2 µM (inactive)
GI50 [1]: 23.1 µM (inactive)
GI50 [2]: 40.8 µM (inactive)
GI50 [3]: 26.9 µM (inactive)
GI50 [4]: 48.9 µM (inactive)
GI50 [5]: > 100 µM (inactive)
GI50 [17]: 59 µM (inactive)
GI50 [6]: 30.9 µM (inactive)
GI50 [7]: 16 µM (inactive)
GI50 [8]: 67.3 µM (inactive)
GI50 [9]: 27.7 µM (inactive)
GI50 [10]: > 100 µM (inactive)
GI50 [11]: > 100 µM (inactive)
GI50 [12]: 52.5 µM (inactive)
GI50 [13]: 18.5 µM (inactive)
GI50 [14]: 44.8 µM (inactive)

COc1ccc(CNc2cnc3ccc(N)cc3n2)cc1
GI50 [15]: > 100 µM (inactive)
GI50 [16]: > 100 µM
GI50 [1]: > 100 µM (inactive)
GI50 [2]: > 100 µM (inactive)
GI50 [4]: > 100 µM (inactive)
GI50 [5]: > 100 µM (inactive)
GI50 [17]: > 100 µM (inactive)
GI50 [6]: > 100 µM (inactive)
GI50 [7]: > 100 µM (inactive)
GI50 [8]: > 100 µM (inactive)
GI50 [10]: > 100 µM (inactive)
GI50 [11]: 3.84 µM (inactive)
GI50 [12]: > 100 µM (inactive)
GI50 [13]: > 100 µM (inactive)
GI50 [18]: 64.6 µM (inactive)
GI50 [14]: > 100 µM (inactive)

COc1ccc2c(c1)C(=O)N1CCOC1C2C(=O)O (stereo not drawn)
GI50 [15]: > 100 µM (inactive)
GI50 [16]: > 100 µM
GI50 [1]: > 100 µM (inactive)
GI50 [2]: > 100 µM (inactive)
GI50 [3]: > 100 µM (inactive)
GI50 [4]: > 100 µM (inactive)
GI50 [5]: > 100 µM (inactive)
GI50 [17]: > 100 µM (inactive)
GI50 [6]: > 100 µM (inactive)
GI50 [7]: > 100 µM (inactive)
GI50 [8]: > 100 µM (inactive)
GI50 [10]: > 100 µM (inactive)
GI50 [11]: > 100 µM (inactive)
GI50 [13]: > 100 µM (inactive)
GI50 [18]: > 100 µM (inactive)
GI50 [14]: > 100 µM (inactive)

CC(O)CNC(=O)C(C)Oc1ccc(OCC2CCCCC2)cc1 (stereo not drawn)
GI50 [15]: > 100 µM (inactive)
GI50 [16]: > 100 µM
GI50 [2]: > 100 µM (inactive)
GI50 [3]: > 100 µM (inactive)
GI50 [4]: > 100 µM (inactive)
GI50 [17]: > 100 µM (inactive)
GI50 [6]: > 100 µM (inactive)
GI50 [8]: > 100 µM (inactive)
GI50 [10]: > 100 µM (inactive)
GI50 [11]: > 100 µM (inactive)
GI50 [12]: > 100 µM (inactive)
GI50 [13]: > 100 µM (inactive)
GI50 [18]: > 100 µM (inactive)

CN(C)c1ccc(/C=C(/C(=O)O)c2csc(-c3nc(/C(=C\c4ccc(N(C)C)cc4)C(=O)O)cs3)n2)cc1
GI50 [15]: > 100 µM (inactive)
GI50 [16]: 42.1 µM
GI50 [1]: > 100 µM (inactive)
GI50 [2]: 44.7 µM (inactive)
GI50 [3]: > 100 µM (inactive)
GI50 [4]: > 100 µM (inactive)
GI50 [5]: > 100 µM (inactive)
GI50 [17]: > 100 µM (inactive)
GI50 [7]: > 100 µM (inactive)
GI50 [8]: > 100 µM (inactive)
GI50 [9]: > 100 µM (inactive)
GI50 [10]: > 100 µM (inactive)
GI50 [11]: > 100 µM (inactive)
GI50 [12]: > 100 µM (inactive)
GI50 [18]: > 100 µM (inactive)
GI50 [14]: > 100 µM (inactive)
